Source: patent publication US12227501B2, “3-amino-2-[2-(acylamino)pyridin-4-yl]-1,5,6,7-tetrahydro-4h-pyrrolo[3,2-c]pyridin-4-one as CSNK1 inhibitors” (Bayer Aktiengesellschaft, priority 2019, dated 2025)
Where “and” joins values, the source holds several entries; their conditions need not be identical. Equal entries are not always repeated. Structures can show the parent of a compound that is named as a salt. Where two headings read alike, the source gives them in different places.

What was measured:
Format in all cases: biochemical
human CSNK1A1 [1] = target: T1, human CSNK1A1 (Homo sapiens (Human), UniProt P48729); assay: CSNK1A1 Assay 2 (ADP-Glo, 1 μM ATP); conditions: substrate biotin-Ahx-KRRRAL-pS-VASLPGL, read-out: CSNK1A1 Assay 2 IC50 [mol/l] (median)
How it was run: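 Full-length human CSNK1A1 as an N-terminal GST fusion (baculovirus/insect cells) with biotinylated peptide substrate biotin-Ahx-KRRRAL-pS-VASLPGL and 1 μM ATP, in HEPES pH 7.5 buffer. Compounds were pre-incubated with enzyme (~0.0375 ng/μL) for 15 min at 22 °C. Generated ADP was read by ADP-Glo luminescence as the activity measure.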

human CSNK1A1 [2] = target: T1, human CSNK1A1; assay: CSNK1A1 High ATP Assay (ADP-Glo, 1 mM ATP); conditions: read-out: CSNK1A1 high ATP assay IC50 [mol/l] (median)
How it was run: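 Kinase activity taken as ADP generated, quantified by ADP-Glo luminescence after 1 h ATP depletion and 1 h detection at 22 °C. Enzyme is GST–full-length human CSNK1A1 (insect cell-expressed), pre-bound to compound for 15 min, with phosphopeptide substrate and 1 mM ATP.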

human CSNK1D = human CSNK1D (Homo sapiens (Human), UniProt P48730); assay: CSNK1D Assay (ADP-Glo, 1 μM ATP); conditions: read-out: CSNK1D IC50 [mol/l] (median)
How it was run: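 Activity is read as ADP produced, by ADP-Glo luminescence after 1 h steps at 22 °C. The reaction uses 1 μM ATP, a biotinylated peptide and insect-cell-expressed GST–CSNK1D (about 0.5 ng/μL) in pH 7.5 HEPES buffer, with 15 min compound–enzyme preincubation.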

[3] = target: wild-type Epidermal Growth Factor Receptor (EGFR) (Homo sapiens (Human), UniProt P00533); assay: WT-EGFR Kinase Assay (TR-FRET, 2 mM ATP)
[4] = EGFR Wildtyp- 2 mM ATP IC50 [mol/l] (median)
[5] = read-out: EGFR Wildtyp- 2 mM ATP IC50 [mol/l] (median)

T1 sequence (P48729 whole entry, the tested form may be a part): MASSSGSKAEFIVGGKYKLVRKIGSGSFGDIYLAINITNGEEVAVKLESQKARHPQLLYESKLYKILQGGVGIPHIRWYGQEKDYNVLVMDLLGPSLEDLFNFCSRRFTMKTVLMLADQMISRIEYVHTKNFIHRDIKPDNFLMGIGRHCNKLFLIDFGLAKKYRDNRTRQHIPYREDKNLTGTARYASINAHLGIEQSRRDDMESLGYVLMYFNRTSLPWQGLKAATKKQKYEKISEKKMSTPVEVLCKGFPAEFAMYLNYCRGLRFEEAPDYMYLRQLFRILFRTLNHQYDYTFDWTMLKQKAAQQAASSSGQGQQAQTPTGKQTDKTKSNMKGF
human CSNK1D, sequence (P48730 whole entry): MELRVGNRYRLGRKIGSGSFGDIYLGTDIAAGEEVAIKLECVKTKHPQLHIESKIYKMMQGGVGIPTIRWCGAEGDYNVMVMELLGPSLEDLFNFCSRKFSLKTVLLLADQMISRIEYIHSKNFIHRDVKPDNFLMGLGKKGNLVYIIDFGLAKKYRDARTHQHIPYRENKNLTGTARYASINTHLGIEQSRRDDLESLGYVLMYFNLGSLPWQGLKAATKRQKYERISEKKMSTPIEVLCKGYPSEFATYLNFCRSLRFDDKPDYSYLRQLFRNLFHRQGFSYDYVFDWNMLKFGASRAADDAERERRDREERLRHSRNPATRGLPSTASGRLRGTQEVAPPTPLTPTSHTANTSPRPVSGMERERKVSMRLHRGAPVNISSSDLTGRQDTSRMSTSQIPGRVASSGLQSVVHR
wild-type Epidermal Growth Factor Receptor (EGFR), sequence (P00533 669-1210): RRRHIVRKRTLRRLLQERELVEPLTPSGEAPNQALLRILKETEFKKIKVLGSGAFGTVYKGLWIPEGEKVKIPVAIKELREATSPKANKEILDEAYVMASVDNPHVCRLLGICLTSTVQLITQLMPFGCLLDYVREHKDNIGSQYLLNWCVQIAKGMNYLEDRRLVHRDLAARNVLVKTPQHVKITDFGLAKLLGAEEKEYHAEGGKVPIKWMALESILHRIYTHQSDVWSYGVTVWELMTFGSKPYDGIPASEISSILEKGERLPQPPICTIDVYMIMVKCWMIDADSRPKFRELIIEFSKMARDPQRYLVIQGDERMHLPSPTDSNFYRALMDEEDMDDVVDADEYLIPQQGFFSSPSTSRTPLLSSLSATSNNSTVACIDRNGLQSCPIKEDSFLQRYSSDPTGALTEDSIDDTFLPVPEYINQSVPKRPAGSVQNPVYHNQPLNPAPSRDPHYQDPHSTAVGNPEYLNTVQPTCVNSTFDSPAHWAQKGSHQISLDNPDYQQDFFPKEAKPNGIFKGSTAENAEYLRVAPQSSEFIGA

Structure (SMILES)	IC50 (human CSNK1A1 [1]) [nM]	IC50 (human CSNK1A1 [2]) [nM]	IC50 (human CSNK1D) [nM]	IC50 [3, 4]	IC50 [3, 5] [nM]
CC1(C)Cc2[nH]c(-c3ccnc(NC(=O)C(CN)c4ccc(F)cc4)c3)c(Nc3ccccc3)c2C(=O)N1 (racemic) [Example 139, 3-amino-N-[4-(3-anilino-6,6-dimethyl-4-oxo-4,5,6,7-tetrahydro-1H-pyrrolo[3,2-c]pyridin-2-yl)pyridin-2-yl]-2-(4-fluorophenyl)propanamide-hydrogen chloride salt (Racemate)]	3.21	41.4	7.73	681 nM	
O=C(Cc1ccc(F)cc1)Nc1cc(-c2[nH]c3c(c2Nc2ccccc2)C(=O)NC2(CC2)C3)ccn1 [Example 146, N-[4-(3′-anilino-4′-oxo-1′,4′,5′,7′-tetrahydrospiro[cyclopropane-1,6′-pyrrolo[3,2-c]pyridin]-2′-yl)pyridin-2-yl]-2-(4-fluorophenyl)acetamide]	1.38	5.04	6.28		667
CC1(C)Cc2[nH]c(-c3ccnc(NC(=O)C(CC(F)F)c4ccc(F)cc4)c3)c(Nc3ccccc3)c2C(=O)N1 (racemic) [Example 48, N-[4-(3-anilino-6,6-dimethyl-4-oxo-4,5,6,7-tetrahydro-1H-pyrrolo[3,2-c]pyridin-2-yl)pyridin-2-yl]-4,4-difluoro-2-(4-fluorophenyl)butanamide]	7.69	37	13.4	14500 nM	
COCCNC(=O)c1ccc(CC(=O)Nc2cc(-c3[nH]c4c(c3Nc3ccccc3)C(=O)N(C)CC4)ccn2)cc1 [Example 152, 4-(2-{[4-(3-anilino-5-methyl-4-oxo-4,5,6,7-tetrahydro-1H-pyrrolo[3,2-c]pyridin-2-yl)pyridin-2-yl]amino}-2-oxoethyl)-N-(2-methoxyethyl)benzamide]	2.45	37	7.96		1660
CCN1CCc2[nH]c(-c3ccnc(NC(=O)Cc4ccc(F)cc4)c3)c(Nc3ccccc3)c2C1=O [Example 28, N-[4-(3-anilino-5-ethyl-4-oxo-4,5,6,7-tetrahydro-1H-pyrrolo[3,2-c]pyridin-2-yl)pyridin-2-yl]-2-(4-fluorophenyl)acetamide]	11.4	1980	71.2		> 20000
CC1(C)Cc2[nH]c(-c3ccnc(NC(=O)Cc4ccc(F)cc4)c3)c(Nc3ccccc3F)c2C(=O)N1 [Example 86, N-{4-[3-(2-fluoroanilino)-6,6-dimethyl-4-oxo-4,5,6,7-tetrahydro-1H-pyrrolo[3,2-c]pyridin-2-yl]pyridin-2-yl}-2-(4-fluorophenyl)acetamide]	4.44	110	9.48		6470
Cc1ccccc1Nc1c(-c2ccnc(NC(=O)C(CC(F)F)c3ccc(F)cc3)c2)[nH]c2c1C(=O)NC1(CCC1)C2 (single isomer, unassigned; enantiomer 1) [Example 144, (−)-4,4-difluoro-2-(4-fluorophenyl)-N-{4-[3′-(2-methylanilino)-4′-oxo-1′,4′,5′,7′-tetrahydrospiro[cyclobutane-1,6′-pyrrolo[3,2-c]pyridin]-2′-yl]pyridin-2-yl}butanamide-(Enantiomer 1)]	80.7	5060	82	> 20000 nM	
CC(C(=O)Nc1cc(-c2[nH]c3c(c2Nc2ccccc2)C(=O)N(C)CC3)ccn1)c1ccc(Cl)cc1 (single isomer, unassigned; (-)) [Example 80, (−)-N-[4-(3-anilino-5-methyl-4-oxo-4,5,6,7-tetrahydro-1H-pyrrolo[3,2-c]pyridin-2-yl)pyridin-2-yl]-2-(4-chlorophenyl)propanamide]	24.1	2840	30.3	> 20000 nM	
CC(C(=O)Nc1cc(-c2[nH]c3c(c2Nc2ccccc2F)C(=O)N(C)CC3)ccn1)c1ccc(F)cc1 (single isomer, unassigned; (-)) [Example 41, (−)-N-{4-[3-(2-fluoroanilino)-5-methyl-4-oxo-4,5,6,7-tetrahydro-1H-pyrrolo[3,2-c]pyridin-2-yl]pyridin-2-yl}-2-(4-fluorophenyl)propanamide]	22.6	3530	31.2	> 20000 nM	
Cc1ccccc1Nc1c(-c2ccnc(NC(=O)C(CC(F)F)c3ccc(F)cc3)c2)[nH]c2c1C(=O)NC1(CCC1)C2 (single isomer, unassigned; enantiomer 2) [Example 145, (+)-4,4-difluoro-2-(4-fluorophenyl)-N-{4-[3′-(2-methylanilino)-4′-oxo-1′,4′,5′,7′-tetrahydrospiro[cyclobutane-1,6′-pyrrolo[3,2-c]pyridin]-2′-yl]pyridin-2-yl}butanamide-(Enantiomer 2)]	10.7	14.8	8.21		> 20000
CC1(C)Cc2[nH]c(-c3ccnc(NC(=O)C(CC(F)F)c4ccc(F)cc4)c3)c(Nc3cccc(F)c3Cl)c2C(=O)N1 (single isomer, unassigned; (-)) [Example 110, (−)-N-{4-[3-(2-chloro-3-fluoroanilino)-6,6-dimethyl-4-oxo-4,5,6,7-tetrahydro-1H-pyrrolo[3,2-c]pyridin-2-yl]pyridin-2-yl}-4,4-difluoro-2-(4-fluorophenyl)butanamide]	262	> 20000	249	4130 nM	
CN1CCc2[nH]c(-c3ccnc(NC(=O)C(CO)c4ccc(F)cc4)c3)c(Nc3ccccc3)c2C1=O (single isomer, unassigned) [Example 19, N-[4-(3-anilino-5-methyl-4-oxo-4,5,6,7-tetrahydro-1H-pyrrolo[3,2-c]pyridin-2-yl)pyridin-2-yl]-2-(4-fluorophenyl)-3-hydroxypropanamide]	1.7	10.6	6.55	> 20 µM (5×) and 16.1 µM	
CC(C(=O)Nc1cc(-c2[nH]c3c(c2Nc2ccccc2)C(=O)N(C)CC3)ccn1)c1ccncc1 (single isomer, unassigned) [Example 74, N-[4-(3-anilino-5-methyl-4-oxo-4,5,6,7-tetrahydro-1H-pyrrolo[3,2-c]pyridin-2-yl)pyridin-2-yl]-2-(pyridin-4-yl)propanamide]	33.9	599	55.1	> 20000 nM	
CN1CCc2[nH]c(-c3ccnc(NC(=O)Cc4ccc(F)cc4F)c3)c(Nc3ccccc3)c2C1=O [Example 82, N-[4-(3-anilino-5-methyl-4-oxo-4,5,6,7-tetrahydro-1H-pyrrolo[3,2-c]pyridin-2-yl)pyridin-2-yl]-2-(2,4-difluorophenyl)acetamide]	2.26	162	5.52		1150
CC1(C)Cc2[nH]c(-c3ccnc(NC(=O)Cc4ccc(F)cc4)c3)c(Nc3cccc(F)c3Cl)c2C(=O)N1 [Example 112, N-{4-[3-(2-chloro-3-fluoroanilino)-6,6-dimethyl-4-oxo-4,5,6,7-tetrahydro-1H-pyrrolo[3,2-c]pyridin-2-yl]pyridin-2-yl}-2-(4-fluorophenyl)acetamide]	6.69	167	8.41		3430
CC(C(=O)Nc1cc(-c2[nH]c3c(c2Nc2ccccc2)C(=O)N(C)C2(CCC2)C3)ccn1)c1ccc(F)cc1 (racemic) [Example 157, N-[4-(3′-anilino-5′-methyl-4′-oxo-1′,4′,5′,7′-tetrahydrospiro[cyclobutane-1,6′-pyrrolo[3,2-c]pyridin]-2′-yl)pyridin-2-yl]-2-(4-fluorophenyl)propanamide (Racemate)]	8.76	50.8	15.8	> 20000 nM	
Cc1ccccc1Nc1c(-c2ccnc(NC(=O)C(CC(F)F)c3ccc(F)cc3)c2)[nH]c2c1C(=O)NC(C)(C)C2 (racemic) [Example 135, N-{4-[6,6-dimethyl-3-(2-methylanilino)-4-oxo-4,5,6,7-tetrahydro-1H-pyrrolo[3,2-c]pyridin-2-yl]pyridin-2-yl}-4,4-difluoro-2-(4-fluorophenyl)butanamide (Racemate)]	25.8	365	19.9	> 20000 nM	
CN1CCc2[nH]c(-c3ccnc(NC(=O)Cc4ccc(S(C)(=O)=O)cc4)c3)c(Nc3ccccc3)c2C1=O [Example 65, N-[4-(3-anilino-5-methyl-4-oxo-4,5,6,7-tetrahydro-1H-pyrrolo[3,2-c]pyridin-2-yl)pyridin-2-yl]-2-[4-(methanesulfonyl)phenyl]acetamide]	1.51	17.5	5.46		490
CC1Cc2[nH]c(-c3ccnc(NC(=O)C(CC(F)F)c4ccc(F)cc4)c3)c(Nc3ccccc3F)c2C(=O)N1C (single isomer, unassigned; (+)) [Example 103, (+)-(2RS)-4,4-difluoro-N-{4-[(6R*)-3-(2-fluoroanilino)-5,6-dimethyl-4-oxo-4,5,6,7-tetrahydro-1H-pyrrolo[3,2-c]pyridin-2-yl]pyridin-2-yl}-2-(4-fluorophenyl)butanamide]	12.8	268	17.3	> 20000 nM	
